# Data taken from US8106155B2, “Test kit for determining process for determining antibiotics containing a beta-lactam ring in a biological fluid” (Neogen Corporation, priority 1998, dated 2012).
# Assays:
# [1] = biological target: T1, BlaR-CTD-β-lactamase fusion protein (UniProt P04190+P12287); test: Example 2: BlaR-CTD-β-lactamase fusion protein with cephalosporin C magnetic beads, milk; format: binding, Bacillus licheniformis; settings: nitrocefine absorbance at 482 nm, 47° C., detection at concentrations below the US standards listed
# T1 construct: made in house; host or cells: E. coli
# T1 sequence (P12287+P04190 with tags, fused parts or gaps): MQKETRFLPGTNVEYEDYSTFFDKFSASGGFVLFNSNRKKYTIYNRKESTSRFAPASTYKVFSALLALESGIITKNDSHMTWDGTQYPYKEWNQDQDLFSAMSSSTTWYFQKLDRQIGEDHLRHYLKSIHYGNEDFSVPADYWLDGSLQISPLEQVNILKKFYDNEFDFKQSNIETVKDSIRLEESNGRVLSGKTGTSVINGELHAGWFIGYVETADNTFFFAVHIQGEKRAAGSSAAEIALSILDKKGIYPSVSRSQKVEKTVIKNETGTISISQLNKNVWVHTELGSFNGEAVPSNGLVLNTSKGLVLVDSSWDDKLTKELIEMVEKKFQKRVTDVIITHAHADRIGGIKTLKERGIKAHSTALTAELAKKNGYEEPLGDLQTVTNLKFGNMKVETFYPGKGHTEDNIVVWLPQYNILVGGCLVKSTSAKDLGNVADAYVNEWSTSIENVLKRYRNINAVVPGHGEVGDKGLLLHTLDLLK
# Source text: This example illustrates the detection in milk of the 6 antibiotics containing a β-lactam ring which are controlled by the US authorities. The test described in this example uses the BlaR-CTD receptor in the form of a fusion protein with β-lacatamase and uses a support in the form of magnetic beads.
# The BlaR-CTD-β-lactamase fusion protein is obtained by genetic coupling between the BlaR-CTD receptor (B. Joris et al., FEMS Microbiology Letters, 107-114, 1990) and Zn β-lactamase from Bacillus cereus (M. Hussain et al., 1985, J. Bact., 164:1, 223-229, 1985).
# BioMag 4100 particles (available from DRG Instrument GmbH, Marburg, Germany, under the reference AM 4100 B) are used, the NH2 ends of which have been activated with glutaraldehyde in the following way: • one volume of initial solution of BioMag 4100 particles is rinsed 4 times with 5 volumes of 0.01M pH 6.0 pyridine buffer. The particles are taken up in 2.5 volumes of glutaraldehyde at 5% in pyridine buffer and are agitated by rotation for 3 hours at room temperature. They are then rinsed 10 times with 2 volumes of 0.01 M pH 7.0 Kpi buffer. The particles are then resuspended in 1 volume of 0.1 M cephalosporin C in Kpi buffer and are agitated by rotation overnight at +4° C. The final rinsing is carried out until the cephalasporin C has been completely removed from the 0.1 M pH 7.0 Kpi buffer. 2.3. Determination of the 6 Antibiotics Penicillin G, Ampicillin, Amoxicillin, Cloxacillin, Cephapirin and Certiofur in Milk. […]
# 50 μl of solution 1 are placed in the presence of […] of doped milk samples and incubated at 47° C. for 2 minutes. […] The absorbance of the residual solution at 482 nm is then measured relative to the nitrocefine solution.
# [2] = biological target: T2, BlaR-CTD receptor in the form of a fusion protein with alkaline phosphatase or peroxidase (Bacillus licheniformis, UniProt P12287); test: Example 4: BlaR-CTD fusion protein with alkaline phosphatase or peroxidase, coated tube, milk; format: binding; settings: absorbance at 405 nm, 47° C.
# T2 construct: uses the BlaR-CTD receptor in the form of a fusion protein with alkaline phosphatase or peroxidase
# Method: The test described in this example uses the BlaR-CTD receptor in the form of a fusion protein with alkaline phosphatase or peroxidase, and uses a support in the form of a coated tube.
# In this example, polystyrene tubes with high protein absorption of the brand name NUNK (Maxisorp type) are used, which are treated with a reference antibiotic solution as indicated in Example 3.3.2.
# 7 picomol of recognition agent are incubated in the presence of 500 μl of milk for 5 minutes at 47° C. in an Eppendorf tube. […] The milk is then incubated for 2 minutes at 47° C. After removing the milk, the tube is washed twice with 1 ml of 1 M, pH 9.8 diethanolamine buffer, 0.5 mM MgCl2. […] The absorbance of the supernatant is then measured using a spectrophotometer whose wavelength is set at 405 nm.
# [3] = biological target: T3, BlaR-CTD receptor (Bacillus licheniformis, UniProt P12287); test: 5-minute test: BlaR-CTD coupled to gold beads, membrane test device, milk; format: binding; settings: test carried out in 5 minutes, 47° C.; positive when 1st band less intense than 2nd band
# T3 construct: uses the BlaR-CTD receptor coupled to gold beads
# Method: This example illustrates the detection in milk of antibiotics containing a β-lactam ring, which are controlled by the health authorities. The test described in this example uses the BlaR-CTD receptor coupled to gold beads which serve as labelling agents, and uses a support in the form of a test device comprising a solid support to which membranes are attached.
# 6 samples of fresh milk containing 0; 2; 4; 6; 8 and 10 ppb of cloxacillin, respectively, are prepared. Each of these solutions is then analyzed in the following way.
# A 200 μl aliquot sample of milk and 45.27 μl of solution prepared in Example 1.1.3 are taken and placed in a glass flask. This mixture is incubated for 3 minutes at 47° C. A test device is taken and placed vertically in the glass flask such that the first end of the test device is in contact with the mixture and such that the second end rests on the wall of the glass flask. The mixture is left to migrate on the test device, while incubating the assembly for 2 minutes at 47° C.
# An intensity value ranging from 0 to 10 is attributed to the bands detected, the value 10 being given to the most intense band and the value 0 being given to the least intense band. According to this scale, a value of 6 is assigned to the reference band. The intensity of the signal observed in the first band is inversely proportional to the amount of cloxacillin present in the sample.
# In this example, when the first band has an intesity less than that of the second band, the test is considered as being positive.
Compound,concentration detected in milk [1],concentration determined in milk [2],concentration detected in a sample of milk [3]
CC1(C)S[C@@H]2[C@H](NC(=O)Cc3ccccc3)C(=O)N2[C@H]1C(=O)O [penicillin G],< 5 ppb,less than 5 ppb,3 ppb
CO/N=C(\C(=O)N[C@@H]1C(=O)N2C(C(=O)O)=C(CSC(=O)c3ccco3)CS[C@H]12)c1csc(N)n1 [ceftiofur],< 50 ppb,less than 50 ppb,100 ppb
CC(=O)OCC1=C(C(=O)O)N2C(=O)[C@@H](NC(=O)CSc3ccncc3)[C@H]2SC1 [cephapirin],< 20 ppb,less than 20 ppb,16 ppb
